Test results taken from patent US20250161319A1, “USE OF HPK1 INHIBITOR IN TREATMENT OF INTERFERON-RELATED DISEASES” (priority 2022, published 2025).
pIC50: −log10 of the molar value.

What was measured:
[1] = target: T1, HPK1 (Homo sapiens (Human), UniProt Q92918); assay: Inhibition of HPK1 kinase activity in vitro (ADP-Glo), compounds of Formula I-1; assay type: biochemical; details: MBP substrate
Procedure: The starting concentration for all tested compounds was 10 μM, and diluted in three-fold concentration gradient for a total of 10 concentration points in duplicate.
Before the experiment, 50 μM DTT and the enzymatic reaction system buffer were prepared.
The compound dilution was transferred into 384-well plate by using a pipette, afterwards, the 384-well plate was sealed and centrifuged at 1000 g for 1 min. 2-fold concentration of HPK1 solution was prepared in the kinase buffer, and then 2.5 μL of the prepared 2-fold concentration of HPK1 solution was added into the 384 wells, centrifuged at 1000 g for 30 s, and incubated for 10 min at room temperature. A mixture of 2-fold concentration of MBP and ATP was prepare in the kinase buffer, and […] of prepared mixture of 2-fold concentration of MBP and ATP was added into the above reaction system for the reaction, centrifuged at 1000 g for 30 s, and then incubated at room temperature for 1 h, 5 μL of ADP-Glo reagent was added into the reaction system, and incubated at room temperature for 40 min. 10 μL of kinase detection reagent was added and incubated at room temperature for 40 min.
In the above formula, cmpd refers to the tested compound, PC refers to the positive control, and VC refers to the negative control.

[2] = target: TNIK (Homo sapiens (Human), UniProt Q9UKE5); assay: In vitro enzyme activity, ADP-Glo method (Example 3); assay type: biochemical; details: recombinant protein, read-out: TNIK inhibiting activity level (IC50)
Procedure: (§1) ADP-Glo™ Kinase Assay is a luminescent ADP assay that provides a versatile, homogeneous, high-throughput screening method to measure kinase activity by quantifying the amount of ADP produced during the kinase reaction. The assay was performed in two steps; first, after the kinase reaction, an equal volume of ADP-Glo™ Reagent was added to quench the kinase reaction and consume the remaining ATP. Second, the Kinase Assay Reagent was added to concurrently convert ADP to ATP and allow measurement of newly synthesized ATP using the luciferase/luciferin reaction. The light produced was measured using a photometer. Luminescence can be correlated with ADP concentration by using an ATP to ADP conversion curve. […] Meanwhile, better selectivity was shown on kinases with closer homology such as GCK/TNIK/PDK1.

[3] = target: T1, HPK1; assay: as above; assay type: biochemical; details: recombinant protein, read-out: HPK1 inhibiting activity level (IC50)
Procedure: as §1

[4] = target: GCK (Homo sapiens (Human), UniProt Q12851); assay: as above; assay type: biochemical; details: recombinant protein, read-out: GCK inhibiting activity level (IC50)
Procedure: as §1

[5] = target: PDK1 (Homo sapiens (Human), UniProt O15530); assay: as above; assay type: biochemical; details: recombinant protein, read-out: PDK1 inhibiting activity level (IC50)
Procedure: as §1

[6] = Oral maximum tolerated dose / oral acute toxicity test in mice; assay type: in vivo; details: for Death, Female mice / Death, Male mice: P.O.
Text: The inventors tested representative compounds for oral maximum tolerated dose in mice.

T1 sequence (Q92918 whole entry): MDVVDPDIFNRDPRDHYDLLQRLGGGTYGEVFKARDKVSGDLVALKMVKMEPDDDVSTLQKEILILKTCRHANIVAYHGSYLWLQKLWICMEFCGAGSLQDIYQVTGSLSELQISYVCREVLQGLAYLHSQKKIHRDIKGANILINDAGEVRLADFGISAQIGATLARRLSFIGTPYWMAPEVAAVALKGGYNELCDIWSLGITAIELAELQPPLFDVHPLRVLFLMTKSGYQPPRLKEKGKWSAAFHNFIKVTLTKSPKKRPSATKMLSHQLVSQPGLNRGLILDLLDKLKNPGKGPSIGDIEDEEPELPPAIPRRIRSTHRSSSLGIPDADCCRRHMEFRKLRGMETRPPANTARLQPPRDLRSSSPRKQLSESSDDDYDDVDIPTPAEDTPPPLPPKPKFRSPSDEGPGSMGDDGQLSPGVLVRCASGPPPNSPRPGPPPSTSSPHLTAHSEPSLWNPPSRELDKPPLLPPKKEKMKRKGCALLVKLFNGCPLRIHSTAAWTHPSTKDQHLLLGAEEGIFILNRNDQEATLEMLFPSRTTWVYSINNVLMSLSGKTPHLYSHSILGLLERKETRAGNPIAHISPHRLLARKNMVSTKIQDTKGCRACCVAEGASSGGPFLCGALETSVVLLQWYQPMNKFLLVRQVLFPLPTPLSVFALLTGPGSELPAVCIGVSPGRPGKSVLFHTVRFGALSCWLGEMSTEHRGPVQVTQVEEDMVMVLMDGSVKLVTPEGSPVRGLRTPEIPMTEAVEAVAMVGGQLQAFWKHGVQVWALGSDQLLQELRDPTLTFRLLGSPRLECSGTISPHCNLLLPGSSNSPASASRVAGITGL
TNIK, sequence (Q9UKE5 whole entry, species assumed): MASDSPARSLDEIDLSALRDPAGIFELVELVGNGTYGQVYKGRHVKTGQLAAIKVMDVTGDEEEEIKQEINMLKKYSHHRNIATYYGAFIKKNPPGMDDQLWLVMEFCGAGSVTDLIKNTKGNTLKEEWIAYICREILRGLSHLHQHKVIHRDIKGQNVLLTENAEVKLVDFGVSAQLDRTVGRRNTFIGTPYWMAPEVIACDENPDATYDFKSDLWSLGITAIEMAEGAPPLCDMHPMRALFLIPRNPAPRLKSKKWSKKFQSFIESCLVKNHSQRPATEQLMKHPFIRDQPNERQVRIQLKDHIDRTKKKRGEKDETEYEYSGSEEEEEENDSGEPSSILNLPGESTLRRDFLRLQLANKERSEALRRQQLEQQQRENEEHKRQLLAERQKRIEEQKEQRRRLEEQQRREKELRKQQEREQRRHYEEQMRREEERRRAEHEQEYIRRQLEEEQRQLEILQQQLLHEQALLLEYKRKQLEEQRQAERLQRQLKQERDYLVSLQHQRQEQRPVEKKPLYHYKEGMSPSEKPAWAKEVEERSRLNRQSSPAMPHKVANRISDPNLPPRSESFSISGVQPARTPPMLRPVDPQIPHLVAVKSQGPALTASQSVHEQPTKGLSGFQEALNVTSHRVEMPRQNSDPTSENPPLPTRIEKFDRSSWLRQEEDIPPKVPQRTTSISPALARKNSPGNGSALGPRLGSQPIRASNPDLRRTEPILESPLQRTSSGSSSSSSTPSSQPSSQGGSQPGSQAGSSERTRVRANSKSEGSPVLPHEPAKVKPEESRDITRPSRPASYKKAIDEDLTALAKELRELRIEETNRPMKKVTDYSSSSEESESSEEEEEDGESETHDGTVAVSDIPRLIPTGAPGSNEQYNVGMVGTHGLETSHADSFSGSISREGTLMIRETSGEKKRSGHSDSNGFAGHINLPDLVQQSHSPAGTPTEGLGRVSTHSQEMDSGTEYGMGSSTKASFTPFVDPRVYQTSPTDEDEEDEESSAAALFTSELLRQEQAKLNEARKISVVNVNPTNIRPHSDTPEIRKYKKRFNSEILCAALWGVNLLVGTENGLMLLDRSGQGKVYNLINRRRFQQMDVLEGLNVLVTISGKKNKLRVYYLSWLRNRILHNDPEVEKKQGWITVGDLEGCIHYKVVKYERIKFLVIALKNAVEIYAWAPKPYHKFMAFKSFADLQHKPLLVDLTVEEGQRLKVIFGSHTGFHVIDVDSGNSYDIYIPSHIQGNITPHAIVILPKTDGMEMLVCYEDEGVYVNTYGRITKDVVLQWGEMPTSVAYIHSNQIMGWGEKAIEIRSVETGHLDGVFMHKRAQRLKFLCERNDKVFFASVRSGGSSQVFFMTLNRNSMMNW
PDK1, sequence (O15530 whole entry): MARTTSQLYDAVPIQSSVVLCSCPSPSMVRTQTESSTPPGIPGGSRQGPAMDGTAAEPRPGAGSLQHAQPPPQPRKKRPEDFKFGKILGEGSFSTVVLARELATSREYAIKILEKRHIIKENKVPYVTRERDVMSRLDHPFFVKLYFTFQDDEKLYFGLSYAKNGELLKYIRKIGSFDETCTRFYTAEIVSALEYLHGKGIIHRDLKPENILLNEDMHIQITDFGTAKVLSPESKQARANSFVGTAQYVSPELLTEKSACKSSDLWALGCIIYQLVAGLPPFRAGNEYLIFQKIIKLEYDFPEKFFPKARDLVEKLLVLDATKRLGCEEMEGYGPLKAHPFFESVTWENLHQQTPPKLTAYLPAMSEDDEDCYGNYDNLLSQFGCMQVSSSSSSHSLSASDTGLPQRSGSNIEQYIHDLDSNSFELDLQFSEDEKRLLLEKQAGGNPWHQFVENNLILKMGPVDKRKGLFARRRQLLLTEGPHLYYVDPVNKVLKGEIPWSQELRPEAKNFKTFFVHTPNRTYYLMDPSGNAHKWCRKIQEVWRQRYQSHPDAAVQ
GCK, sequence (Q12851 whole entry): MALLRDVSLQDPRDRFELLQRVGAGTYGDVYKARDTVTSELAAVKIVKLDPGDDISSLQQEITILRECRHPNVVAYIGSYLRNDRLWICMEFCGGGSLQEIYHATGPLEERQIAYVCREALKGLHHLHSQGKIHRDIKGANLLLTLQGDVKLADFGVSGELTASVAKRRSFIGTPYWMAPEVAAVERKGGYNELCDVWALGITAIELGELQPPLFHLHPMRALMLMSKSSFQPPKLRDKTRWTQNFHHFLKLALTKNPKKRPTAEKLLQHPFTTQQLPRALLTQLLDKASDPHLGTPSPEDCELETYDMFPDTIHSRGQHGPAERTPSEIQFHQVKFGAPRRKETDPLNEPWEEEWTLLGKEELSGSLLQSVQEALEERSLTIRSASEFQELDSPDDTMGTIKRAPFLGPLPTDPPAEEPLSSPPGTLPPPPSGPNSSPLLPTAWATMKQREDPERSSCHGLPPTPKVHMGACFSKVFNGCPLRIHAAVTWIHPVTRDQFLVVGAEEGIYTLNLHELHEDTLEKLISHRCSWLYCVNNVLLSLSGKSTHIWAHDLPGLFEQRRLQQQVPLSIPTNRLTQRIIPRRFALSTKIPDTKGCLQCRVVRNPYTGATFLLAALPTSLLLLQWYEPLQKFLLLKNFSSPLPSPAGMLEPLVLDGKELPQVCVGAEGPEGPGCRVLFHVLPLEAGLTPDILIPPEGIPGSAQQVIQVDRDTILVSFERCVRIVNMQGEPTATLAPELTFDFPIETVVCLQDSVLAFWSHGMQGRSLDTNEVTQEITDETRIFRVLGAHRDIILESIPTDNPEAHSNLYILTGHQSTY

| Compound | pIC50 [1] | pIC50 [2] | pIC50 [3] | pIC50 [4] | pIC50 [5] | also measured |
| --- | --- | --- | --- | --- | --- | --- |
| 4-((2-((4-((2-(dimethylamino)ethyl)(methyl)amino)phenyl)amino)quinazolin-8-yl)oxo)cyclohexan-1-ol [Example 2] | > 7.30 |  |  |  |  |  |
| CN1CCN(c2ccc(Nc3ncc4cccc(O[C@H]5CC[C@H](O)CC5)c4n3)cc2)CC1 [Compound C3] |  | 7.00 to 8.00 | 7.00 to 8.00 | 7.00 to 8.00 | < 6.00 | Death, Female mice ([6]; 225 mg/kg): 0/5; Death, Male mice ([6]; 225 mg/kg): 0/5; Death, Female mice ([6]; 337.5 mg/kg): 2/5; Death, Male mice ([6]; 337.5 mg/kg): 1/5; Death, Female mice ([6]; 506.3 mg/kg): 2/5; Death, Male mice ([6]; 506.3 mg/kg): 3/5; Death, Female mice ([6]; 759.4 mg/kg): 5/5; Death, Male mice ([6]; 759.4 mg/kg): 3/5; Death, Female mice ([6]; 1139.1 mg/kg): 5/5; Death, Male mice ([6]; 1139.1 mg/kg): 5/5; MTD ([6]; mouse, in vivo, po, mice, single dose): 225 mg/kg |
| CN1CCC(n2cc(Nc3ncc4cccc(O[C@H]5CC[C@@H](N)CC5)c4n3)cn2)CC1 [Example 1, 8-(((1s,4s)-4-aminocyclohexyl)oxo)-N-(1-(1-methylpiperidin-4-yl)-1H-pyrazol-4-yl)quinazolin-2-amine] | > 7.30 |  |  |  |  |  |
| CN1CCC(n2cc(Nc3ncc4cccc(OC5CCC(O)CC5)c4n3)cn2)CC1 (centres unmarked) [Example 3, 4-((2-((1-(1-methylpiperidin-4-yl)-1H-pyrazol-4-yl)amino)quinazolin-8-yl)oxo)cyclohexan-1-ol] | > 7.30 |  |  |  |  |  |
| CN1CCN(c2ccc(Nc3ncc4cccc(OC5CCC(O)CC5)c4n3)cc2)CC1 (centres unmarked) [Example 4] | > 7.30 |  |  |  |  |  |
| COCCOc1cccc2cnc(Nc3ccc(N4CCN(C)CC4)cc3)nc12 [Example 5, 8-(2-methoxyethoxy)-N-(4-(4-methylpiperazin-1-yl)phenyl)quinazolin-2-amine] | > 6.70 |  |  |  |  |  |
| CN1CCN(c2ccc(Nc3ncc4cccc(OC5CCC(O)C5)c4n3)cc2)CC1 (centres unmarked) [Example 6] | > 7.00 |  |  |  |  |  |
| CN1CCN(c2ccc(Nc3ncc4cccc(OC5CCC(O)CC5)c4n3)nc2)CC1 (centres unmarked) [Example 7, 4-((2-((5-(4-methylpiperazin-1-yl)pyridin-2-yl)amino)quinazolin-8-yl)oxo)cyclohexan-1-ol] | > 6.52 |  |  |  |  |  |
| CN1CCC(NC(=O)c2ccc(Nc3ncc4cccc(OC5CCC(O)CC5)c4n3)cc2)CC1 (centres unmarked) [Example 8, 4-((8-((4-hydroxycyclohexyl)oxo)quinazolin-2-yl)amino)-N-(1-methylpiperidin-4-yl)benzamide] | > 7.30 |  |  |  |  |  |
| NS(=O)(=O)c1ccc(Nc2ncc3cccc(OC4CCC(O)C4)c3n2)cc1 (centres unmarked) [Example 9, 4-((8-((3-hydroxycyclopentyl)oxo)quinazolin-2-yl)amino)benzenesulfonamide] | > 6.52 |  |  |  |  |  |
| NS(=O)(=O)c1cccc(Nc2ncc3cccc(OC4CCC(O)CC4)c3n2)c1 (centres unmarked) [Example 10, 3-((8-((4-hydroxycyclohexyl)oxo)quinazolin-2-yl)amino)benzenesulfonamide] | < 6.52 |  |  |  |  |  |

Second part, led by results:

| pIC50 [1] | pIC50 [2] | pIC50 [3] | pIC50 [4] | pIC50 [5] | Compound | also measured |
| --- | --- | --- | --- | --- | --- | --- |
|  | 6.00 to 7.00 | ≥ 8.00 | 7.00 to 8.00 | 6.00 to 7.00 | CN1CCC(n2cc(Nc3ncc4cccc(O[C@H]5CC[C@@H](N)CC5)c4n3)cn2)CC1 [Compound C2] |  |
|  | 7.00 to 8.00 | 7.00 to 8.00 | 7.00 to 8.00 | < 6.00 | CN1CCN(c2ccc(Nc3ncc4cccc(O[C@H]5CC[C@@H](O)CC5)c4n3)cc2)CC1 [Compound C4] |  |
|  | 7.00 to 8.00 | ≥ 8.00 | ≥ 8.00 | < 6.00 | Cn1cccc1-c1cc2cc(NC(=O)C3C[C@H]3F)ncc2c(N)c1F (some centres unmarked) [Compound C5] |  |
|  | 7.00 to 8.00 | ≥ 8.00 | 7.00 to 8.00 | < 6.00 | Cn1cccc1-c1cc2cc(NC(=O)C3C[C@@H]3F)ncc2c(N)c1F (some centres unmarked) [Compound C6] |  |
